Assays:
[1] = target: human JAK1 (a.a. 837-1142) (Homo sapiens, UniProt P23458); assay: In vitro JAK kinase assay (HTRF), JAK1; type: biochemical; details: 1 mM ATP
[2] = test system: human JAK1 (a.a. 837-1142); assay: In vitro JAK kinase assay (HTRF), JAK1; type: biochemical; details: JAK2/JAK1 IC50 ratio, 1 mM ATP
keratinocyte cell line = details: concentration-dependent; read-out: IC50 for decreasing keratinocyte cell line proliferation; cited from earlier work
[3] = test system: T cells in psoriasis lesions; details: psoriasis patients, topical treatment, skin biopsies; cited from earlier work

| IC50 [1] | JAK2/JAK1 [2] | SMILES | IC50 (keratinocyte cell line) | CD8(+) IL-17(+) T cells [3] | frequency of IL-22(+) or IFN-γ(+) cells in psoriasis lesions [3] |
| --- | --- | --- | --- | --- | --- |
| < 10 nM | >10 | N#CCC1(n2cc(-c3ncnc4[nH]ccc34)cn2)CN([C@H]2CC[C@@H](Oc3cc(CN4CC[C@H](O)C4)cc(C(F)(F)F)n3)CC2)C1 [Compound 22, {1-(cis-4-{[4-{[(3S)-3-hydroxypyrrolidin-1-yl]methyl}-6-(trifluoromethyl)pyridin-2-yl]oxy}cyclohexyl)-3-[4-(7H-pyrrolo[2,3-d]pyrimidin-4-yl)-1H-pyrazol-1-yl]azetidin-3-yl}acetonitrile] |  |  |  |
| < 10 nM | >10 | C[C@@H](CO)NCc1cc(OC2CCN([C@H]3C[C@](CC#N)(n4cc(-c5ncnc6[nH]ccc56)cn4)C3)CC2)nc(C(F)(F)F)c1 [Compound 23, {trans-3-(4-{[4-({[(1S)-2-hydroxy-1-methylethyl]amino}methyl)-6-(trifluoromethyl)pyridin-2-yl]oxy}piperidin-1-yl)-1-[4-(7H-pyrrolo[2,3-d]pyrimidin-4-yl)-1H-pyrazol-1-yl]cyclobutyl}acetonitrile] |  |  |  |
| < 10 nM | >10 | C[C@@H](O)CNCc1cc(OC2CCN([C@H]3C[C@](CC#N)(n4cc(-c5ncnc6[nH]ccc56)cn4)C3)CC2)nc(C(F)(F)F)c1 [Compound 24, {trans-3-(4-{[4-({[(2R)-2-hydroxypropyl]amino}methyl)-6-(trifluoromethyl)pyridin-2-yl]oxy}piperidin-1-yl)-1-[4-(7H-pyrrolo[2,3-d]pyrimidin-4-yl)-1H-pyrazol-1-yl]cyclobutyl]acetonitrile] |  |  |  |
| < 10 nM | >10 | C[C@H](O)CNCc1cc(OC2CCN([C@H]3C[C@](CC#N)(n4cc(-c5ncnc6[nH]ccc56)cn4)C3)CC2)nc(C(F)(F)F)c1 [Compound 25, {trans-3-(4-{[4-({[(2S)-2-hydroxypropyl]amino}methyl)-6-(trifluoromethyl)pyridin-2-yl]oxy}piperidin-1-yl)-1-[4-(7H-pyrrolo[2,3-d]pyrimidin-4-yl)-1H-pyrazol-1-yl]cyclobutyl}acetonitrile] |  |  |  |
| < 10 nM | >10 | N#CC[C@]1(n2cc(-c3ncnc4[nH]ccc34)cn2)C[C@H](N2CCC(Oc3cc(CCO)cc(C(F)(F)F)n3)CC2)C1 [Compound 26, {trans-3-(4-{[4-(2-hydroxyethyl)-6-(trifluoromethyl)pyridin-2-yl]oxy}piperidin-1-yl)-1-[4-(7H-pyrrolo[2,3-d]pyrimidin-4-yl)-1H-pyrazol-1-yl]cyclobutyl]acetonitrile] |  |  |  |
|  |  | C=C1/C(=C\C=C2/CCC[C@]3(C)[C@@H]([C@H](C)/C=C/[C@@H](O)C4CC4)CC[C@@H]23)C[C@@H](O)C[C@@H]1O [calcipotriol] | 10 to 100 nM | significant decrease | no changes |
|  |  | C=C1/C(=C\C=C2/CCC[C@]3(C)[C@@H]([C@H](C)OCCC(C)(C)O)CC[C@@H]23)C[C@@H](O)C[C@@H]1O [maxacalcitol] | 10 to 100 nM |  |  |
|  |  | C=C1/C(=C\C=C2/CCC[C@]3(C)[C@@H]([C@H](C)CC[C@@H](O)C(C)C)CC[C@@H]23)C[C@@H](O)C[C@@H]1O [tacalcitol] | 10 to 100 nM |  |  |

From patent US20250049817A1, “JAK INHIBITOR WITH A VITAMIN D ANALOG FOR TREATMENT OF SKIN DISEASES” (INCYTE CORPORATION, priority 2020, published 2025)
